In patent US9598423B2 (BRISTOL-MYERS SQUIBB COMPANY, priority 2013, dated 2017):

Key:
[1] = molecular target: CK1ε (Homo sapiens (Human), UniProt P49674); experiment: CK1ε kinase assay (Caliper LABCHIP electrophoretic separation of fluoresceinated peptide substrate and product); assay type: biochemical; details: 200 pM CK1ε, 50 μM ATP, 1.5 μM peptide substrate, 22 hours at room temperature; read-out: CK1ε (IC50)
Experimental: (§1) CK1ε and CK1δ Kinase Assays
(§2) The kinase assay was performed in V-bottom 384-well plates. […] The reaction was incubated at room temperature for 22 hours and terminated by adding 45 μl of 35 mM EDTA to each sample. The reaction mixture was analyzed on the Caliper LABCHIP®3000 (Caliper, Hopkinton, Mass.) by electrophoretic separation of the unphosphorylated substrate and phosphorylated product. […] Compounds were dissolved at 10 mM in dimethylsulfoxide (DMSO) and evaluated at eleven concentrations. IC50 values were derived by non-linear regression analysis.

[2] = molecular target: CK1δ (Homo sapiens (Human), UniProt P48730); experiment: CK1δ kinase assay (Caliper LABCHIP electrophoretic separation of fluoresceinated peptide substrate and product); assay type: biochemical; details: 200 pM CK1δ, 50 μM ATP, 1.5 μM peptide substrate, 22 hours at room temperature; read-out: CK1δ (IC50)
Experimental: as §1, §2

Sequence of CK1ε (P49674 whole entry): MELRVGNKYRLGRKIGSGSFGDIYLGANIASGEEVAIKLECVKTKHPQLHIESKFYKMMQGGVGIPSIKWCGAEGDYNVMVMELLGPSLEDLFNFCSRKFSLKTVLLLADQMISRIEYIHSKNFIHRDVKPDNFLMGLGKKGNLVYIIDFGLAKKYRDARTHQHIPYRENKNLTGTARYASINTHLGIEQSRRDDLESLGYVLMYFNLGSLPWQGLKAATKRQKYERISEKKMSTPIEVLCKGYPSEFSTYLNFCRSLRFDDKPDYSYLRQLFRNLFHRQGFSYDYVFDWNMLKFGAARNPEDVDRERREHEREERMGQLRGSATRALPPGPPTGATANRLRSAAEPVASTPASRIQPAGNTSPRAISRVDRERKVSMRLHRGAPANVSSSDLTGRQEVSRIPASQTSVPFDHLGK
Sequence of CK1δ (P48730 whole entry): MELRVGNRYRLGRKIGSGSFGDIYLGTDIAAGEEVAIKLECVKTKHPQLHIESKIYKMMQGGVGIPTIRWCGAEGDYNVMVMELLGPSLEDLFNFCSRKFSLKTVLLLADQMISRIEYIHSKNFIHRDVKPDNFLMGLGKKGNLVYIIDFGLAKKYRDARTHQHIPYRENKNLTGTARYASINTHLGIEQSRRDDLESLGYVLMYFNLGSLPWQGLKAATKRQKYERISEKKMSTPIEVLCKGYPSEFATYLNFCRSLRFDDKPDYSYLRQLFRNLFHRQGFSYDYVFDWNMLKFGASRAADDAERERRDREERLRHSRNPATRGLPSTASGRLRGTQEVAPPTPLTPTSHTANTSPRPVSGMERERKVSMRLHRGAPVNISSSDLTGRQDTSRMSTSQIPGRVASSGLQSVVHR

Compound	IC50 [1]	IC50 [2]
N#Cc1ccc(NC(=O)N2Cc3c(C(N)=O)c(-c4ccc(F)c(Cl)c4)nn3C(C(=O)NC3CCOCC3)C2)cc1 (single isomer, unassigned) [Compound A29, 2-(3-Chloro-4-fluorophenyl)-N^5-(4-cyanophenyl)-N^7-(tetrahydro-2H-pyran-4-yl)-6,7-dihydropyrazolo[1,5-a]pyrazine-3,5,7(4H)-tricarboxamide]	10 to 100 nM	10 to 100 nM
CC(C)(O)[C@@H]1CN(C(=O)Nc2ccc(C#N)cc2)Cc2c(C(N)=O)c(-c3ccc(Cl)c(Cl)c3)nn21 (single isomer, unassigned) [Compound A34, N^5-(4-Cyanophenyl)-2-(3,4-dichlorophenyl)-7-(2-hydroxypropan-2-yl)-6,7-dihydropyrazolo[1,5-a]pyrazine-3,5(4H)-dicarboxamide]	0.01 to 10 nM	0.01 to 10 nM
CC(C)(O)[C@H]1CN(C(=O)Nc2ccc(C#N)cc2)Cc2c(C(N)=O)c(-c3ccc(Cl)c(Cl)c3)nn21 (single isomer, unassigned) [Compound A35, N^5-(4-Cyanophenyl)-2-(3,4-dichlorophenyl)-7-(2-hydroxypropan-2-yl)-6,7-dihydropyrazolo[1,5-a]pyrazine-3,5(4H)-dicarboxamide]	0.01 to 10 nM	0.01 to 10 nM
C[C@H]1CN(C(=O)Nc2ccc(C#N)cc2)Cc2c(C(N)=O)c(-c3cccc(F)c3)nn21 (single isomer, unassigned) [Compound A78, N^5-(4-Cyanophenyl)-2-(3-fluorophenyl)-7-methyl-6,7-dihydropyrazolo[1,5-a]pyrazine-3,5(4H)-dicarboxamide]	0.01 to 10 nM	0.01 to 10 nM
CC1CN(C(=O)Nc2ccc(C#N)cc2)Cc2c(C(N)=O)c(-c3cccc(F)c3)nn21 (single isomer, unassigned) [Compound A79, N^5-(4-Cyanophenyl)-2-(3-fluorophenyl)-7-methyl-6,7-dihydropyrazolo[1,5-a]pyrazine-3,5(4H)-dicarboxamide]	100 to 2000 nM	100 to 2000 nM
NC(=O)c1c(-c2cccc(F)c2)nn2c1CN(C(=O)NC1C[C@H]1c1ccccc1)CC2 (stereo in doubt) [Compound 44, 2-(3-Fluorophenyl)-N^5-((1R,2S)-2-phenylcyclopropyl)-6,7-dihydropyrazolo[1,5-a]pyrazine-3,5(4H)-dicarboxamide]	10 to 100 nM	0.01 to 10 nM
NC(=O)c1c(-c2cccc(F)c2)nn2c1CN(C(=O)NC1CCCC1)CC2 [Compound 9, N^5-Cyclopentyl-2-(3-fluorophenyl)-6,7-dihydropyrazolo[1,5-a]pyrazine-3,5(4H)-dicarboxamide]	0.01 to 10 nM	0.01 to 10 nM
NC(=O)c1c(-c2cccc(F)c2)nn2c1CN(C(=O)Nc1ccc(Cl)cc1)CC2 [Compound 10, N^5-(4-Chlorophenyl)-2-(3-fluorophenyl)-6,7-dihydropyrazolo[1,5-a]pyrazine-3,5(4H)-dicarboxamide]	0.01 to 10 nM	0.01 to 10 nM
NC(=O)c1c(-c2cccc(F)c2)nn2c1CN(C(=O)Nc1ccc(F)cc1)CC2 [Compound 16, 2-(3-Fluorophenyl)-N^5-(4-fluorophenyl)-6,7-dihydropyrazolo[1,5-a]pyrazine-3,5(4H)-dicarboxamide]	0.01 to 10 nM	0.01 to 10 nM
NC(=O)c1c(-c2cccc(F)c2)nn2c1CN(C(=O)Nc1ccc(C(F)(F)F)cc1)CC2 [Compound 21, 2-(3-Fluorophenyl)-N^5-(4-(trifluoromethyl)phenyl)-6,7-dihydropyrazolo[1,5-a]pyrazine-3,5(4H)-dicarboxamide]	0.01 to 10 nM	0.01 to 10 nM
NC(=O)c1c(-c2cccc(F)c2)nn2c1CN(C(=O)NC13CC4CC(CC(C4)C1)C3)CC2 [Compound 22, N^5-(Adamantan-1-yl)-2-(3-fluorophenyl)-6,7-dihydropyrazolo[1,5-a]pyrazine-3,5(4H)-dicarboxamide]	0.01 to 10 nM	0.01 to 10 nM
NC(=O)c1c(-c2cccc(F)c2)nn2c1CN(C(=O)Nc1cc(F)cc(F)c1)CC2 [Compound 31, N^5-(3,5-Difluorophenyl)-2-(3-fluorophenyl)-6,7-dihydropyrazolo[1,5-a]pyrazine-3,5(4H)-dicarboxamide]	0.01 to 10 nM	0.01 to 10 nM
N#Cc1ccc(NC(=O)N2CCn3nc(-c4cccc(F)c4)c(C(N)=O)c3C2)cc1C(F)(F)F [Compound 38, N^5-(4-Cyano-3-(trifluoromethyl)phenyl)-2-(3-fluorophenyl)-6,7-dihydropyrazolo[1,5-a]pyrazine-3,5(4H)-dicarboxamide]	0.01 to 10 nM	0.01 to 10 nM
NC(=O)c1c(-c2cccc(F)c2)nn2c1CN(C(=O)NCc1ccc(Cl)cc1Cl)CC2 [Compound 45, N^5-(2,4-Dichlorobenzyl)-2-(3-fluorophenyl)-6,7-dihydropyrazolo[1,5-a]pyrazine-3,5(4H)-dicarboxamide]	0.01 to 10 nM	0.01 to 10 nM
NC(=O)c1c(-c2cccc(F)c2)nn2c1CN(C(=O)Nc1ccc(Cl)c(Cl)c1)CC2 [Compound 49, N^5-(3,4-Dichlorophenyl)-2-(3-fluorophenyl)-6,7-dihydropyrazolo[1,5-a]pyrazine-3,5(4H)-dicarboxamide]	0.01 to 10 nM	0.01 to 10 nM
NC(=O)c1c(-c2cccc(F)c2)nn2c1CN(C(=O)Nc1cccc(C(F)(F)F)c1)CC2 [Compound 50, 2-(3-Fluorophenyl)-N^5-(3-(trifluoromethyl)phenyl)-6,7-dihydropyrazolo[1,5-a]pyrazine-3,5(4H)-dicarboxamide]	0.01 to 10 nM	0.01 to 10 nM
COc1ccc(NC(=O)N2CCn3nc(-c4cccc(F)c4)c(C(N)=O)c3C2)cc1 [Compound 51, 2-(3-Fluorophenyl)-N^5-(4-methoxyphenyl)-6,7-dihydropyrazolo[1,5-a]pyrazine-3,5(4H)-dicarboxamide]	0.01 to 10 nM	0.01 to 10 nM
NC(=O)c1c(-c2cccc(F)c2)nn2c1CN(C(=O)Nc1cc(C(F)(F)F)cc(C(F)(F)F)c1)CC2 [Compound 53, N^5-(3,5-Bis(trifluoromethyl)phenyl)-2-(3-fluorophenyl)-6,7-dihydropyrazolo[1,5-a]pyrazine-3,5(4H)-dicarboxamide]	0.01 to 10 nM	0.01 to 10 nM
COc1cc(NC(=O)N2CCn3nc(-c4cccc(F)c4)c(C(N)=O)c3C2)cc(OC)c1 [Compound 56, N^5-(3,5-Dimethoxyphenyl)-2-(3-fluorophenyl)-6,7-dihydropyrazolo[1,5-a]pyrazine-3,5(4H)-dicarboxamide]	0.01 to 10 nM	0.01 to 10 nM
NC(=O)c1c(-c2cccc(F)c2)nn2c1CN(C(=O)Nc1ccc(Oc3ccccc3)cc1)CC2 [Compound 58, 2-(3-Fluorophenyl)-N^5-(4-phenoxyphenyl)-6,7-dihydropyrazolo[1,5-a]pyrazine-3,5(4H)-dicarboxamide]	0.01 to 10 nM	0.01 to 10 nM
NC(=O)c1c(-c2cccc(F)c2)nn2c1CN(C(=O)Nc1ccc3ccccc3c1)CC2 [Compound 59, 2-(3-Fluorophenyl)-N^5-(naphthalen-2-yl)-6,7-dihydropyrazolo[1,5-a]pyrazine-3,5(4H)-dicarboxamide]	0.01 to 10 nM	0.01 to 10 nM
NC(=O)c1c(-c2cccc(F)c2)nn2c1CN(C(=O)Nc1ccc(F)c(Cl)c1)CC2 [Compound 60, N^5-(3-Chloro-4-fluorophenyl)-2-(3-fluorophenyl)-6,7-dihydropyrazolo[1,5-a]pyrazine-3,5(4H)-dicarboxamide]	0.01 to 10 nM	0.01 to 10 nM
